GI50 and TGI data for 10 compounds are collected here from PubChem BioAssay (NCI).

Test systems include LOX IMVI melanoma; SW-620 colon; RPMI-8226 leukemia; OVCAR-3 ovarian; SF-539 CNS; NCI/ADR-RES ovarian; NCI-H226 lung; SK-MEL-2 melanoma.
Test in all cases: inhibition of tumour cell growth, NCI panel, 48 h

Several values for one entry are separate records, joined by “and”; a condition that tells them apart may be missing. Identical values can stand only once.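 Cells were grown in 96-well plates and exposed to each compound for 48 hours at five concentrations; endpoints were interpolated linearly between bracketing concentrations, or set to the highest concentration if not reached. Abbreviation: GI50, concentration required for 50% inhibition of growth. TGI is the concentration that stops growth completely.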

On to `CCOC(=O)C(=Cc1ccc(Br)cc1)C(=O)OCC`, for which the GI50 in the assay with LOX IMVI melanoma is 0.793 µM; in the assay on SW-620 colon, 1.61 µM; with RPMI-8226 leukemia, 0.27 µM; in the assay on OVCAR-3 ovarian, 1.47 µM; with SF-539 CNS it was 1.72 µM; with NCI/ADR-RES ovarian it was 2.78 µM. In addition, the GI50 with NCI-H226 lung is 1.96 µM; in the assay on SK-MEL-2 melanoma, 2.02 µM. For the same compound, the TGI in the assay with LOX IMVI melanoma was 2.24 µM; with SW-620 colon, 3.58 µM; in the assay on RPMI-8226 leukemia it was 1.32 µM; with OVCAR-3 ovarian, 2.92 µM; in the assay on SF-539 CNS it was 3.13 µM; with NCI/ADR-RES ovarian, over 20.4 µM. Moreover, the results for the TGI in the assay with NCI-H226 lung and in the assay on SK-MEL-2 melanoma were 5.5 µM and 4.39 µM, respectively.

On to `NC(N)=NC(N)=NCCc1ccccc1`, for which the GI50 was over 100 µM in the assay with LOX IMVI melanoma; over 100 µM with SW-620 colon; 11.1 µM and 7.54 µM with RPMI-8226 leukemia; 83.9 µM and > 100 µM in the assay on OVCAR-3 ovarian; over 100 µM in the assay with SF-539 CNS; over 100 µM with NCI/ADR-RES ovarian. Further, the GI50 in the assay with NCI-H226 lung and with SK-MEL-2 melanoma was over 100 µM each time. Further, the TGI in the assay on LOX IMVI melanoma, with SW-620 colon, in the assay on RPMI-8226 leukemia, in the assay on OVCAR-3 ovarian, in the assay on SF-539 CNS and with NCI/ADR-RES ovarian was over 100 µM throughout. Further, the TGI with NCI-H226 lung and in the assay on SK-MEL-2 melanoma was over 100 µM in each case.

Regarding `O=c1cccc(C#CCCCCOC2CCCO2)o1` (configuration not stated), the GI50 in the assay on LOX IMVI melanoma was 32.6 µM; in the assay with SW-620 colon, 8.96 µM; in the assay on RPMI-8226 leukemia, 2.93 µM; in the assay with OVCAR-3 ovarian, 11.2 µM; in the assay with SF-539 CNS, 4.75 µM; with NCI/ADR-RES ovarian, 12.2 µM. Besides, the GI50 in the assay on NCI-H226 lung was 17.8 µM; with SK-MEL-2 melanoma, 12.7 µM. Further, the TGI with LOX IMVI melanoma is over 74.5 µM; with SW-620 colon it was over 56.7 µM; with RPMI-8226 leukemia, 63.7 µM; in the assay with OVCAR-3 ovarian, 27.1 µM; in the assay on SF-539 CNS, over 36.6 µM; in the assay with NCI/ADR-RES ovarian it was over 18 µM. The TGI in the assay on NCI-H226 lung was 56.2 µM; in the assay on SK-MEL-2 melanoma it was over 50.4 µM.

As for `c1ccc(-c2cc(-c3cc(-c4ccccn4)[nH]n3)n[nH]2)nc1`, the TGI in the assay with LOX IMVI melanoma, in the assay with SW-620 colon, in the assay with RPMI-8226 leukemia, in the assay with OVCAR-3 ovarian, in the assay on SF-539 CNS and with NCI/ADR-RES ovarian was over 100 µM each time. The TGI with NCI-H226 lung and in the assay on SK-MEL-2 melanoma was over 100 µM each time.

Take `CC(=O)N1c2ccccc2C23CCN4CC5=CCOC(O)C(C5CC42)C13` (configuration not stated): the TGI with LOX IMVI melanoma, in the assay on SW-620 colon, with RPMI-8226 leukemia, with OVCAR-3 ovarian, in the assay with SF-539 CNS and with NCI/ADR-RES ovarian was over 100 µM each time. Besides, the TGI in the assay with NCI-H226 lung and with SK-MEL-2 melanoma was over 100 µM each time.

In the case of `C=CC(=O)Nc1cc2c(Nc3ccc(OCc4ccccn4)c(Cl)c3)ncnc2cc1OCCN1CCOCC1`, the GI50 with LOX IMVI melanoma was 1.81 µM; in the assay on SW-620 colon, 2.99 µM; in the assay with RPMI-8226 leukemia, 2.15 µM; in the assay on OVCAR-3 ovarian it was 1.16 µM; in the assay on SF-539 CNS it was 2.63 µM; in the assay on NCI/ADR-RES ovarian it was 3.77 µM. For the same compound, the GI50 was 6.56 µM in the assay with NCI-H226 lung and 6.11 µM in the assay with SK-MEL-2 melanoma. Further, the TGI was 5.83 µM in the assay on LOX IMVI melanoma; 20.7 µM with SW-620 colon; over 27.6 µM with RPMI-8226 leukemia; 29.3 µM in the assay on OVCAR-3 ovarian; over 100 µM in the assay with SF-539 CNS; over 100 µM with NCI/ADR-RES ovarian. Besides, the results for the TGI in the assay with NCI-H226 lung and in the assay on SK-MEL-2 melanoma were over 83.6 µM and 37.5 µM, respectively.

As for `CC/C(=C(\c1ccc(O)cc1)c1ccc(OCCNC)cc1)c1ccccc1`, the GI50 with LOX IMVI melanoma is 1.47 µM and 1.45 µM and 1.73 µM; with SW-620 colon, 1.69 µM and 1.75 µM and 1.85 µM; with RPMI-8226 leukemia, 2.08 µM and 1.99 µM and 2.27 µM; in the assay on OVCAR-3 ovarian, 2.09 µM and 1.72 µM and 1.97 µM; in the assay on SF-539 CNS, 1.74 µM and 1.7 µM and 1.59 µM; with NCI/ADR-RES ovarian, 2.6 µM and 2.55 µM and 2.5 µM. For the same compound, the GI50 in the assay with NCI-H226 lung was 9.26 µM and 6.49 µM and 4.33 µM; in the assay on SK-MEL-2 melanoma it was 2.04 µM and 1.85 µM and 2.1 µM. In addition, the TGI with LOX IMVI melanoma is 2.79 µM and 2.77 µM and 3.22 µM; in the assay on SW-620 colon it was 3.11 µM and 3.26 µM and 3.74 µM; with RPMI-8226 leukemia, 5.05 µM and 4.58 µM and 5.73 µM; in the assay with OVCAR-3 ovarian it was 4.11 µM and 3.16 µM and 3.9 µM; in the assay with SF-539 CNS, 3.15 µM and 3.09 µM and 3.01 µM; with NCI/ADR-RES ovarian, 6.83 µM and 7.06 µM and 6.81 µM. Besides, the TGI in the assay on NCI-H226 lung was 28.4 µM and 23.7 µM and 17 µM; in the assay on SK-MEL-2 melanoma, 4.02 µM and 3.65 µM and 3.85 µM.

As for `C[C@]12CC[C@H]3[C@@H](C[C@@H]4SC(Nc5cccc(F)c5)=N[C@@]45CC(=O)CC[C@]35C)[C@@H]1CCC2=O`, the GI50 in the assay on LOX IMVI melanoma is 1.67 µM; with SW-620 colon it was 2.33 µM; with RPMI-8226 leukemia it was 0.865 µM; in the assay on OVCAR-3 ovarian it was 1.72 µM; in the assay on SF-539 CNS it was 1.34 µM; in the assay with NCI/ADR-RES ovarian it was 2.81 µM. Further, the GI50 was 2.35 µM in the assay on NCI-H226 lung and 1.86 µM with SK-MEL-2 melanoma. Besides, the TGI with LOX IMVI melanoma came out at 3.21 µM; in the assay on SW-620 colon, 4.99 µM; in the assay with RPMI-8226 leukemia it was 3.9 µM; in the assay with OVCAR-3 ovarian, 3.3 µM; in the assay with SF-539 CNS, 2.94 µM; with NCI/ADR-RES ovarian it was 17.2 µM. The TGI in the assay on NCI-H226 lung amounted to 5.7 µM; in the assay with SK-MEL-2 melanoma, 5.2 µM.

`Nc1ccc(-c2ccc(-c3nc4ccccc4[nH]3)cc2)cc1`: the TGI is over 100 µM in the assay with LOX IMVI melanoma; over 100 µM with SW-620 colon; 39.9 µM in the assay on RPMI-8226 leukemia; 40.1 µM in the assay on OVCAR-3 ovarian; over 76.3 µM in the assay with NCI/ADR-RES ovarian; 40.9 µM in the assay with NCI-H226 lung. This compound also registered a TGI with SK-MEL-2 melanoma of over 100 µM. The GI50 is under 0.0506 µM in the assay on SW-620 colon; 3.34 µM in the assay on RPMI-8226 leukemia; 1.2 µM in the assay on OVCAR-3 ovarian; 0.208 µM with SF-539 CNS; 21.3 µM with NCI/ADR-RES ovarian; 4.26 µM in the assay with NCI-H226 lung. Also, the GI50 in the assay on SK-MEL-2 melanoma is 1.88 µM.

For the compound `O=C1c2cccc3c(N4CCN(c5ccc6c7c(cccc57)C(=O)N(CCN5CCNCC5)C6=O)CC4)ccc(c23)C(=O)N1CCN1CCNCC1`, the GI50 in the assay on LOX IMVI melanoma was 6.57 µM; in the assay on SW-620 colon it was 7.64 µM; in the assay on RPMI-8226 leukemia, 2.45 µM; with OVCAR-3 ovarian, 20.3 µM; in the assay with SF-539 CNS, 13 µM; in the assay on NCI/ADR-RES ovarian, 13.8 µM. For the same compound, the GI50 in the assay with NCI-H226 lung was 12.4 µM; with SK-MEL-2 melanoma, 24.7 µM. The TGI in the assay with LOX IMVI melanoma was 25.4 µM; in the assay with SW-620 colon, 77.7 µM; in the assay on RPMI-8226 leukemia, 8.55 µM; with OVCAR-3 ovarian, 42.1 µM; with SF-539 CNS, 34.1 µM; with NCI/ADR-RES ovarian, 32.6 µM. The figures for the TGI in the assay on NCI-H226 lung and with SK-MEL-2 melanoma were 29 µM and 67.5 µM, respectively.
